Experimental data published in US20240315993A1, “ANTIPARASITIC COMPOUNDS” (Intervet Inc., priority 2021, published 2024).

Experiments:
[1] = system: juvenile soft ticks (Ornithodoros moubata); assay: Guinea pig - efficacy against argaside tick; assay type: in vivo; conditions: for effective to control ticks: 5 mg/kg
Description: (§1) Guinea pigs were locally co-infested (using an infestation device on a shaved skin area) with juvenile soft ticks (Ornithodoros moubata) and bed bugs (Cimex lectularius) before the treatment day (Day 0) to provide a baseline-negative control value. Guinea pigs were treated orally (by gavage) or subcutaneously at a dose of 5 mg/kg bodyweight of a test compound in a formulation of 10% DMF/Emulsifier+90% Aqua ad injectabilia.
(§2) Repeated local infestations with both parasites were performed at different time points after treatment. Within approximately 45 min after each infestation ten engorged ticks and ten engorged bed bugs were • collected and the percentage of dead and damaged parasites per species were • assessed approximately 24 hours following collection. The efficacy was • calculated as % of inhibition ‘killed+damaged’ parasites in a treated group in comparison to the baseline-negative control (using a modified Schneider Orelli's formula).
(§3) Results: Activity of the test compounds at different evaluation time-points (≥80% inhibition were found active): […]

[2] = system: bed bugs (Cimex lectularius); assay: Guinea pig - efficacy against bed bug; assay type: in vivo; conditions: for effective to control bed bugs: 5 mg/kg
Description: as §1, §2, §3

[3] = 5 mg/kg subcutaneous, after 7 days
[4] = 5 mg/kg subcutaneous, after 10 days
[5] = 5 mg/kg subcutaneous, after 14 days
[6] = 5 mg/kg subcutaneous, after 17 days
[7] = at least until Day 10, both administration routes (oral, subcutaneous)
[8] = 5 mg/kg subcutaneous, after 21 days
[9] = 5 mg/kg subcutaneous, after 24 days
[10] = 5 mg/kg subcutaneous, after 28 days
[11] = 5 mg/kg subcutaneous, after 31 days
[12] = for at least one week, both administration routes
[13] = 5 mg/kg subcutaneous, after 35 days

O=C(Nc1ncc(F)cc1F)c1cc(NC(=O)C2C(c3cc(Cl)c(F)c(Cl)c3)C2(Cl)Cl)ccc1Cl (stereo not drawn) [Compound 469]
activity against tick nymphs (≥80% inhibition, killed+damaged) ([1]; 5 mg/kg oral, Day 0): immediate activity
activity against tick nymphs (≥80% inhibition, killed+damaged) ([1]; 5 mg/kg oral, after 7 days): activity
activity against tick nymphs (≥80% inhibition, killed+damaged) ([1]; 5 mg/kg oral, after 10 days): activity
activity against tick nymphs (≥80% inhibition, killed+damaged) ([1]; 5 mg/kg subcutaneous, Day 0): immediate activity
activity against tick nymphs (≥80% inhibition, killed+damaged) [1, 3]: activity
activity against tick nymphs (≥80% inhibition, killed+damaged) [1, 4]: activity
activity against tick nymphs (≥80% inhibition, killed+damaged) [1, 5]: activity
activity against tick nymphs (≥80% inhibition, killed+damaged) [1, 6]: activity
effective to control ticks [1, 7]: 100%
activity against bed bugs (≥80% inhibition, killed+damaged) ([2]; 5 mg/kg oral, Day 0): immediate activity
activity against bed bugs (≥80% inhibition, killed+damaged) ([2]; 5 mg/kg oral, after 7 days): activity
activity against bed bugs (≥80% inhibition, killed+damaged) ([2]; 5 mg/kg oral, after 10 days): activity
activity against bed bugs (≥80% inhibition, killed+damaged) ([2]; 5 mg/kg subcutaneous, Day 0): immediate activity
activity against bed bugs (≥80% inhibition, killed+damaged) [2, 3]: activity
activity against bed bugs (≥80% inhibition, killed+damaged) [2, 4]: activity
activity against bed bugs (≥80% inhibition, killed+damaged) [2, 5]: activity
activity against bed bugs (≥80% inhibition, killed+damaged) [2, 6]: activity
activity against bed bugs (≥80% inhibition, killed+damaged) [2, 8]: activity
effective to control bed bugs [2, 7]: 100%

O=C(Nc1ncc(F)cc1F)c1cc(NC(=O)C2C(c3cc(Cl)c(Cl)c(Cl)c3)C2(Cl)Cl)ccc1Cl (stereo not drawn) [Compound 470]
activity against tick nymphs (≥80% inhibition, killed+damaged) ([1]; 5 mg/kg oral, Day 0): immediate activity
activity against tick nymphs (≥80% inhibition, killed+damaged) ([1]; 5 mg/kg oral, after 7 days): activity
activity against tick nymphs (≥80% inhibition, killed+damaged) ([1]; 5 mg/kg oral, after 10 days): activity
activity against tick nymphs (≥80% inhibition, killed+damaged) ([1]; 5 mg/kg oral, after 14 days): activity
activity against tick nymphs (≥80% inhibition, killed+damaged) ([1]; 5 mg/kg oral, after 17 days): activity
activity against tick nymphs (≥80% inhibition, killed+damaged) ([1]; 5 mg/kg subcutaneous, Day 0): immediate activity
activity against tick nymphs (≥80% inhibition, killed+damaged) [1, 3]: activity
activity against tick nymphs (≥80% inhibition, killed+damaged) [1, 4]: activity
activity against tick nymphs (≥80% inhibition, killed+damaged) [1, 5]: activity
activity against tick nymphs (≥80% inhibition, killed+damaged) [1, 6]: activity
activity against tick nymphs (≥80% inhibition, killed+damaged) [1, 8]: activity
activity against tick nymphs (≥80% inhibition, killed+damaged) [1, 9]: activity
activity against tick nymphs (≥80% inhibition, killed+damaged) [1, 10]: activity
activity against tick nymphs (≥80% inhibition, killed+damaged) [1, 11]: activity
effective to control ticks [1, 12]: 100%
activity against bed bugs (≥80% inhibition, killed+damaged) ([2]; 5 mg/kg oral, Day 0): immediate activity
activity against bed bugs (≥80% inhibition, killed+damaged) ([2]; 5 mg/kg oral, after 7 days): activity
activity against bed bugs (≥80% inhibition, killed+damaged) ([2]; 5 mg/kg oral, after 10 days): activity
activity against bed bugs (≥80% inhibition, killed+damaged) ([2]; 5 mg/kg oral, after 14 days): activity
activity against bed bugs (≥80% inhibition, killed+damaged) ([2]; 5 mg/kg oral, after 17 days): activity
activity against bed bugs (≥80% inhibition, killed+damaged) ([2]; 5 mg/kg oral, after 21 days): activity
activity against bed bugs (≥80% inhibition, killed+damaged) ([2]; 5 mg/kg oral, after 24 days): activity
activity against bed bugs (≥80% inhibition, killed+damaged) ([2]; 5 mg/kg oral, after 28 days): activity
activity against bed bugs (≥80% inhibition, killed+damaged) ([2]; 5 mg/kg subcutaneous, Day 0): immediate activity
activity against bed bugs (≥80% inhibition, killed+damaged) [2, 3]: activity
activity against bed bugs (≥80% inhibition, killed+damaged) [2, 4]: activity
activity against bed bugs (≥80% inhibition, killed+damaged) [2, 5]: activity
activity against bed bugs (≥80% inhibition, killed+damaged) [2, 6]: activity
activity against bed bugs (≥80% inhibition, killed+damaged) [2, 8]: activity
activity against bed bugs (≥80% inhibition, killed+damaged) [2, 9]: activity
activity against bed bugs (≥80% inhibition, killed+damaged) [2, 10]: activity
activity against bed bugs (≥80% inhibition, killed+damaged) [2, 11]: activity
activity against bed bugs (≥80% inhibition, killed+damaged) [2, 13]: activity
effective to control bed bugs [2, 12]: 100%

O=C(Nc1ncc(F)cc1F)c1cc(NC(=O)C2C(c3cc(C(F)(F)F)cc(C(F)(F)F)c3)C2(Cl)Cl)ccc1Cl (stereo not drawn) [Compound 471]
activity against tick nymphs (≥80% inhibition, killed+damaged) ([1]; 5 mg/kg oral, Day 0): immediate activity
activity against tick nymphs (≥80% inhibition, killed+damaged) ([1]; 5 mg/kg oral, after 7 days): activity
activity against tick nymphs (≥80% inhibition, killed+damaged) ([1]; 5 mg/kg oral, after 10 days): activity
activity against tick nymphs (≥80% inhibition, killed+damaged) ([1]; 5 mg/kg oral, after 14 days): activity
activity against tick nymphs (≥80% inhibition, killed+damaged) ([1]; 5 mg/kg oral, after 17 days): activity
activity against tick nymphs (≥80% inhibition, killed+damaged) ([1]; 5 mg/kg oral, after 21 days): activity
activity against tick nymphs (≥80% inhibition, killed+damaged) ([1]; 5 mg/kg oral, after 24 days): activity
activity against tick nymphs (≥80% inhibition, killed+damaged) ([1]; 5 mg/kg oral, after 28 days): activity
activity against tick nymphs (≥80% inhibition, killed+damaged) ([1]; 5 mg/kg oral, after 31 days): activity
activity against tick nymphs (≥80% inhibition, killed+damaged) ([1]; 5 mg/kg oral, after 35 days): activity
activity against tick nymphs (≥80% inhibition, killed+damaged) ([1]; 5 mg/kg subcutaneous, Day 0): immediate activity
activity against tick nymphs (≥80% inhibition, killed+damaged) [1, 3]: activity
activity against tick nymphs (≥80% inhibition, killed+damaged) [1, 4]: activity
activity against tick nymphs (≥80% inhibition, killed+damaged) [1, 5]: activity
activity against tick nymphs (≥80% inhibition, killed+damaged) [1, 6]: activity
activity against tick nymphs (≥80% inhibition, killed+damaged) [1, 8]: activity
activity against tick nymphs (≥80% inhibition, killed+damaged) [1, 9]: activity
activity against tick nymphs (≥80% inhibition, killed+damaged) [1, 10]: activity
activity against tick nymphs (≥80% inhibition, killed+damaged) [1, 11]: activity
activity against tick nymphs (≥80% inhibition, killed+damaged) [1, 13]: activity
effective to control ticks [1, 12]: 100%
activity against bed bugs (≥80% inhibition, killed+damaged) ([2]; 5 mg/kg oral, Day 0): immediate activity
activity against bed bugs (≥80% inhibition, killed+damaged) ([2]; 5 mg/kg oral, after 7 days): activity
activity against bed bugs (≥80% inhibition, killed+damaged) ([2]; 5 mg/kg oral, after 10 days): activity
activity against bed bugs (≥80% inhibition, killed+damaged) ([2]; 5 mg/kg oral, after 14 days): activity
activity against bed bugs (≥80% inhibition, killed+damaged) ([2]; 5 mg/kg oral, after 17 days): activity
activity against bed bugs (≥80% inhibition, killed+damaged) ([2]; 5 mg/kg oral, after 21 days): activity
activity against bed bugs (≥80% inhibition, killed+damaged) ([2]; 5 mg/kg oral, after 24 days): activity
activity against bed bugs (≥80% inhibition, killed+damaged) ([2]; 5 mg/kg oral, after 28 days): activity
activity against bed bugs (≥80% inhibition, killed+damaged) ([2]; 5 mg/kg oral, after 31 days): activity
activity against bed bugs (≥80% inhibition, killed+damaged) ([2]; 5 mg/kg oral, after 35 days): activity
activity against bed bugs (≥80% inhibition, killed+damaged) ([2]; 5 mg/kg subcutaneous, Day 0): immediate activity
activity against bed bugs (≥80% inhibition, killed+damaged) [2, 3]: activity
activity against bed bugs (≥80% inhibition, killed+damaged) [2, 4]: activity
activity against bed bugs (≥80% inhibition, killed+damaged) [2, 5]: activity
activity against bed bugs (≥80% inhibition, killed+damaged) [2, 6]: activity
activity against bed bugs (≥80% inhibition, killed+damaged) [2, 8]: activity
activity against bed bugs (≥80% inhibition, killed+damaged) [2, 9]: activity
activity against bed bugs (≥80% inhibition, killed+damaged) [2, 10]: activity
activity against bed bugs (≥80% inhibition, killed+damaged) [2, 11]: activity
activity against bed bugs (≥80% inhibition, killed+damaged) [2, 13]: activity
effective to control bed bugs [2, 12]: 100%

O=C(Nc1ccc(F)cc1F)c1cc(NC(=O)C2C(c3cc(C(F)(F)F)cc(C(F)(F)F)c3)C2(Cl)Cl)ccc1Cl (stereo not drawn) [Compound 472]
activity against tick nymphs (≥80% inhibition, killed+damaged) ([1]; 5 mg/kg oral, Day 0): immediate activity
activity against tick nymphs (≥80% inhibition, killed+damaged) ([1]; 5 mg/kg subcutaneous, Day 0): immediate activity
activity against bed bugs (≥80% inhibition, killed+damaged) ([2]; 5 mg/kg oral, Day 0): immediate activity
activity against bed bugs (≥80% inhibition, killed+damaged) ([2]; 5 mg/kg subcutaneous, Day 0): immediate activity
